In patent US10914728B2, “Bioassay for insulin formulations” (priority 2016, dated 2021):

What was measured:
Type in all cases: cell-based
primary rat adipocytes = assay: Rat free fat cell lipogenesis; conditions: Isolated primary rat adipocytes; H3 labelled glucose; 2 hours; read-out: Approximate EC50 values, Rat Free Fat Cell lipogenesis
Procedure: (§1) For signalling, cells were treated with vehicle or increasing doses of insulin for 30 minutes. Cells were lysed in appropriate buffers and phosphorylation of the insulin receptor, Erk, Akt or Foxo was determined by Western blotting or ELISA, as specified. For mitogenicity, H4IIE cells were incubated with vehicle or increased doses of insulin and cellular growth was measured by detection of thymidine incorporation. […] Uptake and conversion of glucose into lipids were measured after 2 hours by extracting lipids into Microscint-e and measuring radioactivity using a top counter.
(§2) For all methods: to determine EC50 values, data were fitted to a nonlinear 4 parameter regression curve using Graphpad Prism software.

H4IIE cells [1] = assay: Sensitivity assessment: ERK phosphorylation, H4IIE cells, Western blotting; conditions: insulin for 30 minutes, read-out: Approximate EC50 values, ERK phosphorylation
Procedure: as §1, §2

H4IIE cells [2] = assay: Mitogenicity (thymidine incorporation), H4IIE cells; conditions: radioactively labelled thymidine, read-out: Approximate EC50 values, Mitogenecity (thymidine incorporation)
Procedure: as §1, §2

- EC50 (primary rat adipocytes): ~0.02 nM
- EC50 (H4IIE cells [1]): ~2.3 nM
- EC50 (H4IIE cells [2]): ~1 nM
Substance: human insulin
